Experimental data published in patent US20240336632A1, “NOVEL COMPOUND COMPRISING ESTER GROUP AND USES THEREOF” (priority 2021, published 2024).

Tests used:
[1] = Lipophilicity (log P) of the radiotracer; type: physicochemical
[2] = In vitro metabolism with mouse liver S9 fraction; type: in vitro ADME; conditions: 4 h incubation
Description: (§1) For the in vitro metabolic studies with mouse liver S9 fraction and microsome, 1-3 (3.7 MBq) were dissolved in PBS with 10% DMSO and mixed with the mouse liver S9 fraction (0.2 mg in 10 μL) or the microsome (0.2 mg in 10 μL) with NADPH (0.25 mM). The reaction was performed upon shaking at 550 rpm at 37° C. The hydrolysis rate of each radiotracer was measured by radio-TLC for up to 24 h.

[3] = In vitro metabolism with mouse liver microsome; type: in vitro ADME; conditions: 4 h incubation
Description: as §1

[4] = Ex vivo cleavage in liver homogenate
Description: Ex vivo studies to determine the cleavage rates of the examined radiotracers in different organs were performed using the homogenates of mouse tissues collected from CT26 tumor models. Liver, spleen, and tumor tissues were collected and weighted. After the addition of ice-cold PBS solution at a ratio of 1:1 (w/w), the tissues were homogenized with a homogenizer (Ultra-Turrax, IKA, Selangor, Malaysia) under ice-cold conditions. The crude homogenate was then centrifuged at 2,000 g, and the sediment was discarded. Each supernatant (300 μL), referred to as tissue homogenate, was immediately mixed with each radiotracer (3.7 MBq) dissolved in PBS with 10% DMSO. The reaction was then performed upon shaking at 550 rpm at 37° C., and the hydrolysis rate of each radiotracer was measured by radio-TLC for up to 24 h. […] Urine and fecal samples were collected separately at 0.5, 1, 2, 4, 8, 16, and 24 h post-injection, and their radioactivity was measured with a dose calibrator (CRC-Ultra; Capintec, Florham Park, NJ, USA). […] The same urine sample was further analyzed by HPLC [Luna C8 column (4.6×50 mm, 5 μm), 0.1% TFA/H2O (solventA), and 0.1% TFA/acetonitrile (solvent B)] using a gradient of 10-100% B in 5 min and 10% B for 27 min, which continued for up to 45 min at a flow rate of 1 mL/min.

[5] = Ex vivo cleavage in spleen homogenate; type: in vitro ADME, mouse; conditions: 4 h and 24 h
Description: Liver, spleen, and tumor tissues were collected and weighted.

normal BALB/c mice = experiment: Urinary and fecal excretion of radioactive metabolites; type: in vivo, mouse
[6] = system: orthotopic PANC-1/Luc+ pancreatic tumor BALB/c nude mice; experiment: PET/CT imaging of orthotopic pancreatic tumor model; type: in vivo; conditions: L4 at 24 h post-injection; FDG at 1 h post-injection, same mouse
Description: The establishment of the tumor in the orthotopic pancreatic tumor models was confirmed at 13 days post-inoculation of PANC-1/Luc+ cells into the pancreas tail with bioluminescence imaging using D-luciferin (60 mg/kg). The next day, [^18F]FDG-PET/CT (FDG: fluorodeoxyglucose) imaging was performed at 1 h post-injection (7.4 MBq/mouse) for 20 min.
Two days after [^18F]FDG imaging, [^124I]L4 (6.3-9.3 MBq in 200 μL PBS) was administered into the tail vein of the same mouse and PET/CT images were acquired at 1, 4, and 24 h post-injection.

porcine liver esterase = experiment: Esterase enzymatic assay (radio-TLC cleavage); type: in vitro ADME; conditions: 37 C
Description: The in vitro metabolism studies were performed using 25 U/mL solutions of porcine liver esterase in PBS. [^131I]HIB (1), [^131I]IPH (2), or [^131I]HIB-ether (3) (3.7 MBq each) was also dissolved in PBS with 10% DMSO. Esterase (2.5 U) was then added to each radiotracer solution, and the solution was gently shaken at 37° C.
With these hypotheses in mind, we performed systematic mechanistic studies. First, we carried out an esterase enzymatic assay. All three radiotracers, [^131I]HIB, [^131I]IPH, and [^131I]HIB-ether, were incubated separately with esterase (Sigma Aldrich, St. Louis, MO, USA) at 37° C. in a 10% DMSO/PBS mixture, and the progress of the reactions was monitored for 24 h by radio-TLC (FIG. 3A).

cleavage percentage (porcine liver esterase; 4 h)	cleavage percentage (porcine liver esterase; 24 h)	Compound	log P [1]	cleavage percentage [2]	cleavage percentage [3]	cleavage ([4]; 4 h)	cleavage ([4]; 24 h)	cleavage rate lower than in the liver [5]	radioactivity in the feces relative to that in urine (normal BALB/c mice; after i.v. [131I]HIB-liposome)	metabolite found in urine (normal BALB/c mice; urine 3 h post-injection, radio-TLC and HPLC)	tumor detection in PET image [6]
–	–	CCCCCCCCCCCCCCCCOC(=O)c1ccc([131I])cc1 [[^131I]HIB]	2.19±0.04	89.7%	85.3%	~75%	~88%	~18%	less than 5%	4-[^131I]iodobenzoic acid	–
–	–	fluorodeoxyglucose [[^18F]FDG]	–	–	–	–	–	–	–	–	the tumor could barely be detected
15.9%	20.3%	CCCCCCCCCCCCCCCCOc1ccc(I)cc1 [[^131I]HIB-ether, 1-(hexadecyloxy)-4-[^124/131I]iodobenzene]	–	19.3%	16.0%	23%	25%	–	–	–	–
–	–	CCCCCCCCCCCCCCCCC(=O)Oc1ccc([131I])cc1 [[^131I]IPH, 4-[^124/131I]iodophenyl heptadecanoate]	–	91.3%	87.3%	~75%	~88%	~18%	–	–	–
